# Assay results: patent publication US5217950A, “Nisin compositions for use as enhanced, broad range bactericides” (Applied Microbiology, Inc., priority 1992, dated 1993)
# Where no end group is shown, it is not given here.
# Key:
# Streptococcus agalactiae = assay: bactericidal activity in milk; type: cell-based
# Procedure: (§1) All tests in the following examples were performed at 37° C. The efficacy of the enhanced broad range bactericides was determined by assaying bactericidal activity as measured by the percent bacterial survival after treatment with the bactericide. Generally, after incubation of a 10^7 cell per ml suspension of target species with the novel bactericide for specified lengths of time, bacteria were collected by centrifugation for 2 minutes. The bacterial pellet was washed free of the bactericide with a rescue buffer, termed herein Phage buffer (50 mM Tris-HCl buffer pH 7.8, 1 mM MgSO4, 4 mM CaCl2, 0.1M Nacl, and 0.1% gelatin), resuspended and serially diluted into Phage buffer, and 100 μl of the suspended bacteria were spread on nutrient agar plates. Surviving bacteria were determined by scoring colony forming units (CFU) after incubation for 24-48 hours at 37° C. An effective bactericide according to this invention is one which allows less than 0.1% of the initial viable count of the bacteria to survive.
# However, the combination of the two agents, 0.1% monolaurin and nisin 0.2 μg/ml, is extremely potent towards S. agalactiae. […] Thus, when the application of nisin is limited by its available activity, a bactericide comprising nisin with a surfactant can be expected to be more useful.
# (§2) Incubations were in milk at 37° C.
# Listeria monocytogenes [1] = assay: bactericidal activity in milk; type: cell-based
# Procedure: as §1
# An example of where the application of nisin is limited by its available activity is illustrated by the data in Table 15B.
# as §2
# S. typhimurium = assay: bactericidal activity: percent bacterial survival after treatment, suspension in buffer; type: cell-based, Salmonella typhimurium
# Procedure: as §1, with “C.” for “C. An effective bactericide according to this invention is one which allows less than 0.1% of the initial viable count of the bacteria to survive.”
# The control (Test #1) is identical to the control of Example 1 (Table 1).
# K. pneumoniae = assay: as above; type: cell-based, Klebsiella pneumoniae; settings: 20 mM Tris pH 8.0, 37° C
# Procedure: as §1, with “C.” for “C. An effective bactericide according to this invention is one which allows less than 0.1% of the initial viable count of the bacteria to survive.”
# The effect was measured as a function of percentage bacterial survival after 2 hours.
# Coryneform bacteria = assay: bactericidal activity: percent bacterial survival in Tris buffer; type: cell-based, mixed population of axillary Coryneform bacteria; settings: 20 mM Tris-HCl pH 8.0
# Procedure: as §1, with “C.” for “C. An effective bactericide according to this invention is one which allows less than 0.1% of the initial viable count of the bacteria to survive.”
# (§3) Incubations were performed in 20 mM Tris-HCl, pH at 8.0 at 37° C.
# [2] = system: S. typhimurium on chicken muscle; assay: bactericidal activity on inoculated chicken muscle, survival of unadhered cells; type: cell-based, Salmonella typhimurium
# Procedure: as §1
# Incubations were performed in either 50 mM sodium acetate, pH 5.0, or 20 mM Tris, pH 8.0 at 37° C.
# Cubes of chicken muscle were cleansed with sodium hypochlorite and povidone iodine prior to use. To inoculate the tissue, the cubes of chicken muscle were dipped into a 10^8 cells/ml suspension of S. typhimurium in 20 mM Tris HCl, pH 8.0. Excess moisture was removed from dipped cubes by tapping. The chicken samples were placed into sufficient buffer containing the nisin composition to cover the tissue and incubated for 2 hours at 37° C. after which the tissue was removed to sufficient Phage buffer to cover the tissue. The bacteria remaining in the test solution were collected by centrifugation, washed with Phage buffer, and combined with bacteria washed from the tissue by Phage buffer. The combined samples (termed "unadhered" cells) were serially diluted and 100 μl aliquots were plated for determination of surviving bacteria.
# (§4) Cubes of chicken muscle were cleansed with sodium hypochlorite and povidone iodine prior to use. To inoculate the tissue, the cubes of chicken muscle were dipped into a 10^8 cells/ml suspension of S. typhimurium in 20 mM Tris HCl, pH 8.0. Excess moisture was removed from dipped cubes by tapping. The tissue was placed into sufficient buffer containing the nisin compositions to cover the tissue, and incubated for 2 hours at 37° C. after which the tissue was removed to sufficient Phage buffer to cover the tissue. The bacteria remaining in the test solution were collected by centrifugation, washed with Phage buffer, and combined with bacteria washed from the tissue by Phage buffer. The combined samples (termed "unadhered" cells) were serially diluted and 100 μl aliquots were plated for determination of surviving bacteria.
# as §4, with “cleaned” for “cleansed”, “50” for “20”, “sodium acetate buffer,” for “Tris HCl,”, “5.0.” for “8.0.”, “containing” for “containing the”
# Listeria monocytogenes [3] = assay: bactericidal activity: percent bacterial survival in Tris buffer; type: cell-based; settings: 20 mM Tris-HCl pH 8.0
# Procedure: as §1, §3
# Streptococcus mutans [4] = assay: bactericidal activity and kinetics: percent bacterial survival in Tris buffer; type: cell-based; settings: for % Survival: 1.0 mM EDTA, nisin 0, 20 mM Tris-HCl pH 7.3
# Procedure: Incubations were performed in 20 mM Tris-HCl, pH 8.0 at 37° C.
# The suspensions were incubated for various times ranging from 0.5 to 60 minutes with the bactericides. The bactericidal efficacy of the bactericides was estimated by determining the percent survival of bacteria.
# Incubations were performed in 20 mM Tris-HCl, pH 7.3 at 37° C.
# Staphylococcus aureus = assay: bactericidal activity: percent bacterial survival, influence of pH and EDTA; type: cell-based
# Procedure: as §1
# Incubations were performed in 50 mM sodium acetate buffer, pH 5.0 or 20 m
# TrisHCl buffer, pH 8.0 at 37° C.
# E. coli = assay: bactericidal activity: percent bacterial survival after treatment, suspension in buffer; type: cell-based, Escherichia coli; settings: for Percentage E. coli Survival at 2 hours: 20 mM Tris pH 8.0, 37° C
# Procedure: as §1, with “C.” for “C. An effective bactericide according to this invention is one which allows less than 0.1% of the initial viable count of the bacteria to survive.”
# The effects of the bactericide were measured as a function of percentage bacteria survival after 2 hours.
# Incubations were performed in 20 mM Tris-HCl, […] at 37° C.
# Streptococcus mutans [5] = assay: rapid bactericidal activity in the presence of divalent cation, 10% Fetal Calf Serum; type: cell-based; settings: Nisin 3, no EDTA, CaCl3 0 mM
# Procedure: Incubations were performed in 10% Fetal Calf Serum at 37° C.
compound,measurement,setting,value
"CCCCCCCCCCCC(=O)OCC(O)CO (stereo not drawn) [Monolaurin, monolaurin]",% survival at 2 h,"Streptococcus agalactiae; Monolaurin 0.01%, nisin 0, 37° C",100%
same,% survival at 2 h,"Streptococcus agalactiae; Monolaurin 0.1%, nisin 0, 37° C",4.5%
monooleate,% Survival 2 hr,"Listeria monocytogenes [1]; Monooleate 0.1%, nisin 0, 37° C",67%
same,% Survival 2 hr,"Listeria monocytogenes [1]; Monooleate 1.0%, nisin 0, 37° C",63%
same,bactericidal activity towards L. monocytogenes,Listeria monocytogenes [1]; monooleate by itself,no bactericidal activity
O=C([O-])CN(CCN(CC(=O)[O-])CC(=O)O)CC(=O)O.[Na+].[Na+] [EDTA],% Survival at 2 hours,"S. typhimurium; EDTA 1.0 mM, BSA 1.0%, nisin 0, 20 mM Tris pH 8.0",63%
same,% Survival at 2 hours,"S. typhimurium; EDTA 2.0 mM, nisin 0, 20 mM Tris pH 8.0, 37° C",8.7%
same,% Survival at 2 hours,"S. typhimurium; EDTA 10 mM, nisin 0, 20 mM Tris pH 8.0, 37° C",14%
same,Percentage S. typhimurium Survival at 3 hours,"S. typhimurium; EDTA 20 mM, nisin 0, 20 mM Tris pH 8.0, 37° C",2.5%
same,% Survival at 2 hours,"S. typhimurium; EDTA 50 mM, nisin 0, 50 mM sodium acetate pH 5.0, 37° C",3.5%
same,% Survival at 2 hours,"S. typhimurium; EDTA 100 mM, nisin 0, 20 mM Tris pH 8.0, 37° C",45%
same,% Survival at 2 hours,"K. pneumoniae; EDTA 20 mM, nisin 0",22%
same,% Survival 2 hr,"Coryneform bacteria; EDTA 0.3 mM, nisin 0",4.6%
same,% Survival 2 hr,"Coryneform bacteria; EDTA 1.0 mM (last column, after 3.0), nisin 0",36%
same,% Survival 2 hr,"Coryneform bacteria; EDTA 1.0 mM, nisin 0",3.6%
same,% Survival 2 hr,"Coryneform bacteria; EDTA 3.0 mM, nisin 0",8%
same,% Survival at 2 hours,"[2]; EDTA 1.0 mM, BSA 1.0%, nisin 0, pH 8.0",27%
same,% Survival at 2 hours (unadhered cells),"[2]; EDTA 10 mM, nisin 0, 20 mM Tris pH 8.0",5.2%
same,% Survival at 2 hours (unadhered cells),"[2]; EDTA 10 mM, nisin 0, 50 mM sodium acetate pH 5.0 (Table 7)",6.4%
same,% Survival after 2 hr,"Listeria monocytogenes [3]; EDTA 1.0 mM, nisin 0",84%
same,% Survival,Streptococcus mutans [4]; incubation 3 minutes,100%
same,% Survival,Streptococcus mutans [4]; incubation 60 minutes,100%
same,% Survival 2 hr,"Staphylococcus aureus; EDTA 0.3 mM, nisin 0, pH 8.0",100%
same,% Survival 2 hr,"Staphylococcus aureus; EDTA 1.0 mM, nisin 0, pH 8.0",81%
same,% Survival 2 hr,"Staphylococcus aureus; EDTA 3.0 mM, nisin 0, pH 5.0",100%
same,% Survival 2 hr,"Staphylococcus aureus; EDTA 3.0 mM, nisin 0, pH 8.0",100%
same,% Survival 2 hr,"Staphylococcus aureus; EDTA 10 mM, nisin 0, pH 8.0",100%
same,% Survival 2 hr,"Staphylococcus aureus; EDTA 30 mM, nisin 0, pH 8.0",100%
same,% survival at 1 min.,"E. coli; EDTA 1.0 mM, nisin 0, 20 mM Tris-HCl pH 7.0",100%
Triton X-100,Percentage E. coli Survival at 2 hours,"E. coli; Triton X-100 1.0%, nisin 0, EDTA 0",100%
same,bactericidal activity towards E. coli,"E. coli; Triton X-100 1.0%, tests #3 and #4 of Table 4",no significant bactericidal activity
"nisin (ITSISLCTPGCKTGALMGCNMKTATCHCSIHVSK; cysteine pairing not given here; also: lantibiotic, modifications not placed; UniProt P13068 24-57, looked up) [polypeptide bacteriocin with antimicrobial properties produced by strains of Streptococcus lactis]",% Survival at 2 hours,"S. typhimurium; nisin 10 μg/ml, EDTA 0, BSA 0, Tris buffer (Table 8)",51.3%
same,Percentage S. typhimurium Survival at 3 hours,"S. typhimurium; nisin 50 μg/ml, EDTA 0, 20 mM Tris pH 8.0, 37° C",7.0%
same,% Survival at 2 hours,"S. typhimurium; nisin 100 μg/ml, EDTA 0, BSA 0, Tris buffer (Table 8)",1.6%
same,Percentage S. typhimurium Survival at 3 hours,"S. typhimurium; nisin 100 μg/ml, EDTA 0, 20 mM Tris pH 8.0, 37° C",1.6%
same,% Survival at 2 hours,"S. typhimurium; nisin 100 μg/ml, EDTA 0, 20 mM Tris pH 8.0, 37° C (Table 6)",4%
same,% Survival at 2 hours,"S. typhimurium; nisin 100 μg/ml, EDTA 0, 50 mM sodium acetate pH 5.0, 37° C",0.6%
same,% Survival at 2 hours,"K. pneumoniae; nisin 100 μg/ml, EDTA 0",50%
same,% Survival at 2 hours,"K. pneumoniae; nisin 300 μg/ml, EDTA 0",38%
same,% Survival 2 hr,"Listeria monocytogenes [1]; nisin 100 μg/ml, Monooleate 0, 37° C",0.56%
same,% Survival 2 hr,"Coryneform bacteria; nisin 3 μg/ml, EDTA 0",0.22%
same,% Survival at 2 hours (unadhered cells),"[2]; nisin 300 μg/ml, EDTA 0, 1% Bovine serum albumin, 20 mM Tris pH 8.0",0.02%
same,% Survival at 2 hours (unadhered cells),"[2]; nisin 300 μg/ml, EDTA 0, 20 mM Tris pH 8.0",7.5%
same,% Survival at 2 hours (unadhered cells),"[2]; nisin 300 μg/ml, EDTA 0, 50 mM sodium acetate pH 5.0",0.1%
same,% Survival after 2 hr,"Listeria monocytogenes [3]; nisin 3.0 μ/ml, EDTA 0",0.71%
same,% Survival after 2 hr,"Streptococcus mutans [4]; nisin 0.1 μg/ml, EDTA 0, 20 mM Tris-HCl pH 8.0",4.3%
same,% Survival 2 hr,"Staphylococcus aureus; nisin 3.0 μg/ml, EDTA 0, pH 5.0",0.6%
same,% Survival 2 hr,"Staphylococcus aureus; nisin 3.0 μg/ml, EDTA 0, pH 8.0",7.4%
same,% survival at 2 h,"Streptococcus agalactiae; nisin 0.02 μg/ml, Monolaurin 0, 37° C",100%
same,% survival at 2 h,"Streptococcus agalactiae; nisin 0.2 μg/ml, Monolaurin 0, 37° C",2.2%
same,% survival at 1 min.,Streptococcus mutans [5],2.9%
same,Percentage E. coli Survival at 2 hours,"E. coli; nisin 30 μg/ml, EDTA 0, Triton X-100 0",27%
same,Percentage E. coli Survival at 2 hours,"E. coli; nisin 100 μg/ml, EDTA 0, Triton X-100 0",25%
same,Percentage E. coli Survival at 2 hours,"E. coli; nisin 300 μg/ml, EDTA 0, Triton X-100 0",8.5%
